Test results from PubChem BioAssay (NCI).
Values joined by “and” are separate entries in the source; they are usually repeats but may differ in a detail not shown here. Equal entries are not always repeated.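 Briefly, cells in 96-well plates were exposed to five compound concentrations for 48 h, and endpoints were estimated by linear interpolation. GI50: concentration for 50% inhibition of growth. The concentration for full growth arrest is given as TGI.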

Tests used:
Assay in all cases: NCI tumour cell line growth inhibition, 48 h
HT29 colon = test system: HT29 colon
OVCAR-4 ovarian = test system: OVCAR-4 ovarian
RXF 393 renal = test system: RXF 393 renal
IGROV1 ovarian = test system: IGROV1 ovarian
SK-MEL-28 melanoma = test system: SK-MEL-28 melanoma
COLO 205 colon = test system: COLO 205 colon
NCI-H23 lung = test system: NCI-H23 lung
SNB-19 CNS = test system: SNB-19 CNS
NCI-H226 lung = test system: NCI-H226 lung
MALME-3M melanoma = test system: MALME-3M melanoma

SMILES | GI50 (HT29 colon) | TGI (HT29 colon) | GI50 (OVCAR-4 ovarian) | TGI (OVCAR-4 ovarian) | GI50 (RXF 393 renal) | TGI (RXF 393 renal) | GI50 (IGROV1 ovarian) | TGI (IGROV1 ovarian) | GI50 (SK-MEL-28 melanoma) | TGI (SK-MEL-28 melanoma) | GI50 (COLO 205 colon) | TGI (COLO 205 colon) | GI50 (NCI-H23 lung) | TGI (NCI-H23 lung) | GI50 (SNB-19 CNS) | TGI (SNB-19 CNS) | GI50 (NCI-H226 lung) | TGI (NCI-H226 lung) | GI50 (MALME-3M melanoma) | TGI (MALME-3M melanoma)
COc1cc(-c2cnn(C)c2)ccc1Nc1ncc2ccnc(N[C@@H](C)C(C)(C)C)c2n1 | > 50.6 µM | > 100 µM | > 46.8 µM | > 100 µM | 8.98 µM | > 100 µM | > 100 µM | > 100 µM | > 100 µM | > 100 µM | 1.81 µM | > 100 µM | > 53.7 µM | > 100 µM | > 82.3 µM | > 100 µM | > 83.3 µM | > 100 µM | > 66 µM | > 100 µM
O=[N+]([O-])c1c(/C=N/Nc2ccccc2)oc(-c2ccc3c(c2)OCO3)c1-c1ccc2c(c1)OCO2 |  | > 100 µM |  | > 100 µM |  | > 100 µM |  | > 100 µM |  | > 100 µM |  | > 100 µM |  | > 100 µM |  | > 100 µM |  | > 100 µM |  | > 100 µM
CC1(C)C2CC(c3ccncc3)ON2C(C)(C)N1O (centres undefined) |  | > 100 µM |  | > 100 µM |  | > 100 µM |  | > 100 µM |  | > 100 µM |  | > 100 µM |  | > 100 µM |  | > 100 µM |  | > 100 µM |  | > 100 µM
CCN(CC)c1ccc(N=Nc2ccc(-c3nc4cccnc4o3)cc2)cc1 |  | > 100 µM |  | > 100 µM |  | > 100 µM |  | > 100 µM |  | > 100 µM |  | > 100 µM |  | > 100 µM |  | > 100 µM |  | > 100 µM |  | > 100 µM
CCCCNc1nc(NC(C)(C)C)nc(NC(C)(C)C)n1 | 2.37 µM | > 100 µM | 3.03 µM | > 100 µM | 8.07 µM | 76.9 µM | 16.3 µM | > 100 µM | 30 µM | > 100 µM | 4.44 µM | > 100 µM | 5.89 µM | > 100 µM | 17.6 µM | > 100 µM | 6.44 µM | > 100 µM | 49.4 µM | > 100 µM
O=C1C=C(c2c(O)ccc3ccccc23)c2ccccc2C1=O |  | 27.2 µM |  | 3.79 µM |  | 5.06 µM |  | 9.01 µM |  | > 50 µM |  | 21.7 µM |  | 4.92 µM |  | 22.4 µM |  | 27.9 µM |  | 26.7 µM
CC#CC(O)(C(=O)OC1CCCN(C)C1)C1=CC=CCC1 (centres undefined) |  | > 100 µM |  | > 100 µM |  | > 100 µM |  | > 100 µM |  | > 100 µM |  | > 100 µM |  | > 100 µM |  | > 100 µM |  | > 100 µM |  | > 100 µM
O=[N+]([O-])c1ccc2[nH]cc(-c3c4ccsc4cc4[nH]c5ccc([N+](=O)[O-])cc5c34)c2c1 | 1.21 µM | 12.5 µM | 1.8 µM | 9.38 µM | 0.592 µM | 1.85 µM | 1.65 µM | 8.52 µM | 1.38 µM | 6.44 µM | 0.796 µM | 2.42 µM | 1.21 µM | 5.62 µM | 1.32 µM | 9.13 µM | 0.967 µM | 3.95 µM | 0.898 µM | 9.44 µM
CCN(CC)CCNc1c(OC)cc(C)c2sc3ccccc3c(=O)c12 |  | 6.42 µM |  | 14.8 µM |  | 34 µM |  | 20.7 µM |  | 5.1 µM |  | 5.02 µM |  | 29 µM |  | 26.6 µM |  | 12.8 µM |  | 6.08 µM
CN1CCN(Cc2ccc(NC(=O)c3cncc(C#Cc4cnc(N)c5ccc(F)cc45)c3)cc2C(F)(F)F)CC1 | 0.956 µM | 4.14 µM | 0.667 µM | 4.23 µM | 0.826 µM | 2.73 µM | 0.677 µM | 4.08 µM | 2.52 µM | 7.11 µM | 1.23 µM | 4.77 µM | 2.4 µM | 7.86 µM | 4.39 µM | 8.96 µM | 1.05 µM | 6.16 µM | 1.08 µM | 3.93 µM
CCOc1ccccc1NC(=O)/C=C1\NC(=O)CS1 |  | > 100 µM |  | > 100 µM |  | > 100 µM |  | > 100 µM |  | > 100 µM |  | > 100 µM |  | > 100 µM |  | > 100 µM |  | > 100 µM |  | > 100 µM
CC(=O)CC1CCC(=O)CCC(=O)OC(CC(C)=O)CCC(=O)CCC(=O)O1 (centres undefined) |  | > 100 µM |  | > 100 µM |  | > 100 µM |  | > 100 µM |  | > 100 µM |  | > 100 µM |  | > 100 µM |  | > 100 µM |  | > 100 µM |  | > 100 µM
C[CH2][Sn]1([CH2]C)[O]C(=O)[O][Sn]([CH2]C)([CH2]C)[O]1 | 25.6 µM | > 62.2 µM | > 100 µM | > 100 µM | 15.5 µM | 30.3 µM | > 57.6 µM | > 87.8 µM | 13 µM | 25.8 µM | > 41.1 µM | > 57.1 µM | 17.9 µM | 35 µM | 18.4 µM | 33.6 µM | > 43.8 µM | > 58.4 µM | 16 µM | 29.9 µM
O=c1ccn(C2OC(CO)C(O)C2O)c(=O)[nH]1 (centres undefined) | > 1000 µM | > 1000 µM | > 1000 µM | > 1000 µM | > 1000 µM | > 1000 µM | > 1000 µM | > 1000 µM | > 1000 µM | > 1000 µM | > 1000 µM | > 1000 µM | > 1000 µM | > 1000 µM | > 1000 µM | > 1000 µM |  | > 1000 µM | 740 µM and > 10 µM | > 1000 µM
